Experiment: xn = mol fraction of the nth substance listed
Conditions: 101 kPa, Liquid, Vibrating tube method

NC1CCCCC1 [cyclohexylamine] + CCCCCCC
mass density [kg/m3]
Conditions | 288.15 K | 293.15 K | 298.15 K | 303.15 K | 308.15 K | 313.15 K | 318.15 K | 323.15 K
x1 = 0.0501 | 694.788 | 690.573 | 686.334 | 682.072 | 677.784 | 673.467 | 669.12 | 664.739
x1 = 0.1002 | 701.818 | 697.601 | 693.36 | 689.097 | 684.805 | 680.49 | 676.146 | 671.776
x1 = 0.1501 | 709.079 | 704.855 | 700.609 | 696.341 | 692.046 | 687.73 | 683.386 | 679.015
x1 = 0.2305 | 721.227 | 716.988 | 712.729 | 708.452 | 704.15 | 699.827 | 695.479 | 691.106
x1 = 0.3004 | 732.296 | 728.038 | 723.765 | 719.477 | 715.17 | 710.839 | 706.489 | 702.117
x1 = 0.401 | 749.067 | 744.783 | 740.484 | 736.173 | 731.847 | 727.504 | 723.139 | 718.756
x1 = 0.4497 | 757.546 | 753.244 | 748.933 | 744.614 | 740.28 | 735.927 | 731.554 | 727.16
x1 = 0.5597 | 777.524 | 773.195 | 768.854 | 764.509 | 760.149 | 755.773 | 751.384 | 746.981
x1 = 0.6001 | 785.155 | 780.814 | 776.463 | 772.102 | 767.732 | 763.352 | 758.953 | 754.544
x1 = 0.6498 | 794.839 | 790.479 | 786.113 | 781.744 | 777.362 | 772.968 | 768.563 | 764.139
x1 = 0.6994 | 804.717 | 800.344 | 795.962 | 791.575 | 787.181 | 782.776 | 778.36 | 773.935
x1 = 0.7999 | 825.611 | 821.199 | 816.783 | 812.36 | 807.934 | 803.499 | 799.055 | 794.605
x1 = 0.8992 | 847.523 | 843.061 | 838.598 | 834.132 | 829.662 | 825.189 | 820.71 | 816.229
x1 = 1 | 871.29 | 866.747 | 862.207 | 857.671 | 853.138 | 848.607 | 844.073 | 839.547

NC1CCCCC1 [cyclohexylamine] + CCCCO
mass density [kg/m3]
Conditions | 288.15 K | 293.15 K | 298.15 K | 303.15 K | 308.15 K | 313.15 K | 318.15 K | 323.15 K
x2 = 0 | 871.29 | 866.747 | 862.207 | 857.671 | 853.138 | 848.607 | 844.073 | 839.547
x2 = 0.0499 | 870.402 | 865.907 | 861.409 | 856.914 | 852.415 | 847.912 | 843.406 | 838.847
x2 = 0.1019 | 869.284 | 864.828 | 860.372 | 855.914 | 851.45 | 846.979 | 842.499 | 838.018
x2 = 0.1499 | 868.221 | 863.8 | 859.375 | 854.945 | 850.509 | 846.063 | 841.605 | 837.144
x2 = 0.1997 | 867.037 | 862.648 | 858.251 | 853.85 | 849.438 | 845.013 | 840.578 | 836.136
x2 = 0.2995 | 864.139 | 859.8 | 855.453 | 851.095 | 846.722 | 842.337 | 837.935 | 833.516
x2 = 0.4 | 860.506 | 856.206 | 851.899 | 847.581 | 843.244 | 838.892 | 834.521 | 830.136
x2 = 0.4994 | 855.958 | 851.708 | 847.444 | 843.167 | 838.874 | 834.561 | 830.229 | 825.872
x2 = 0.6006 | 850.147 | 845.964 | 841.767 | 837.554 | 833.322 | 829.067 | 824.783 | 820.478
x2 = 0.6977 | 843.134 | 839.036 | 834.924 | 830.791 | 826.637 | 822.458 | 818.247 | 814.01
x2 = 0.7497 | 838.964 | 834.921 | 830.861 | 826.78 | 822.671 | 818.541 | 814.376 | 810.181
x2 = 0.7984 | 834.505 | 830.511 | 826.498 | 822.464 | 818.404 | 814.315 | 810.191 | 806.034
x2 = 0.85 | 829.604 | 825.664 | 821.703 | 817.72 | 813.708 | 809.66 | 805.587 | 801.472
x2 = 0.8993 | 824.498 | 820.606 | 816.697 | 812.762 | 808.799 | 804.804 | 800.769 | 796.696
x2 = 0.9508 | 819.064 | 815.223 | 811.359 | 807.471 | 803.552 | 799.601 | 795.606 | 791.569

CCCCO [butan-1-ol] + CCCCCCC
mass density [kg/m3]
Conditions | 288.15 K | 293.15 K | 298.15 K | 303.15 K | 308.15 K | 313.15 K | 318.15 K | 323.15 K
x1 = 0.0691 | 692.997 | 688.732 | 684.439 | 680.112 | 675.754 | 671.356 | 666.921 | 662.457
x1 = 0.0999 | 695.43 | 691.164 | 686.867 | 682.541 | 678.179 | 673.778 | 669.334 | 664.851
x1 = 0.1495 | 699.575 | 695.309 | 691.013 | 686.688 | 682.323 | 677.919 | 673.469 | 668.978
x1 = 0.1701 | 701.352 | 697.089 | 692.795 | 688.469 | 684.105 | 679.699 | 675.246 | 670.749
x1 = 0.2 | 703.971 | 699.708 | 695.42 | 691.091 | 686.729 | 682.324 | 677.872 | 673.376
x1 = 0.2497 | 708.55 | 704.296 | 700.016 | 695.692 | 691.331 | 686.93 | 682.482 | 677.987
x1 = 0.2507 | 708.652 | 704.392 | 700.109 | 695.793 | 691.434 | 687.035 | 682.589 | 678.099
x1 = 0.2999 | 713.405 | 709.158 | 704.88 | 700.571 | 696.222 | 691.828 | 687.391 | 682.909
x1 = 0.3501 | 718.522 | 714.283 | 710.016 | 705.715 | 701.373 | 696.989 | 692.557 | 688.076
x1 = 0.3998 | 723.818 | 719.595 | 715.341 | 711.055 | 706.726 | 702.355 | 697.935 | 693.471
x1 = 0.4497 | 729.369 | 725.163 | 720.925 | 716.653 | 712.34 | 707.984 | 703.577 | 699.118
x1 = 0.4999 | 735.288 | 731.11 | 726.892 | 722.64 | 718.343 | 714.006 | 709.618 | 705.176
x1 = 0.5516 | 741.637 | 737.484 | 733.291 | 729.062 | 724.793 | 720.478 | 716.114 | 711.695
x1 = 0.6497 | 754.667 | 750.57 | 746.442 | 742.276 | 738.07 | 733.819 | 729.516 | 725.167
x1 = 0.6999 | 761.833 | 757.773 | 753.681 | 749.559 | 745.39 | 741.178 | 736.918 | 732.609
x1 = 0.7502 | 769.372 | 765.348 | 761.298 | 757.214 | 753.09 | 748.919 | 744.697 | 740.419
x1 = 0.7999 | 777.249 | 773.267 | 769.263 | 765.22 | 761.14 | 757.016 | 752.839 | 748.617
x1 = 0.8498 | 785.51 | 781.573 | 777.613 | 773.62 | 769.591 | 765.519 | 761.397 | 757.222
x1 = 0.9006 | 794.437 | 790.548 | 786.635 | 782.692 | 778.716 | 774.698 | 770.631 | 766.522
x1 = 1 | 813.373 | 809.573 | 805.762 | 801.923 | 798.053 | 794.147 | 790.231 | 786.238
